The values that follow come from US20250179077A1, “QUINAZOLINE COMPOUNDS AND USES THEREOF AS INHIBITORS OF MUTANT KRAS PROTEINS” (AMGEN INC., priority 2022, published 2025).

SMILES strings stand for the structures. Where two headings read alike, the source gives them in different places.

Test [1] relates to Phosphorylation of ERK1/2 in AsPC-1 cells. Nature of the test: Phospho-ERK1/2 MSD Assay. The format is cell-based. Particulars: Homo sapiens. The method in brief: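 Phospho-ERK1/2 was quantified by MSD whole-cell lysate immunoassay in RIPA lysates made with protease/phosphatase inhibitors. A 4-parameter logistic model gave IC50.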
Test [2] concerns the target His-tagged KRAS G12D protein (Homo sapiens, UniProt P01116, G12D). Nature of the test: KRAS G12D TR-FRET Assay. In kind it is binding. The method in brief: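 His-KRAS G12D (20 nM) was preincubated with titrated compound for 30 min at RT in HEPES pH 7.4 buffer with MgCl2, 10 μM GDP. Biotin-KRPep-2d (20 nM) was then added for 1 h, followed by Eu-anti-His/streptavidin-d2 for 1 h. The 665/615 nm TR-FRET ratio was fitted 4-parameter to give IC50.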
(In general: Time-resolved FRET reads energy transfer from a long-lived donor to a nearby acceptor.)

The target in test [3] is GDP-bound KRAS protein (aa 1-169), containing both G12D and C118A amino acid substitutions (Homo sapiens, UniProt P01116, C118A/G12D). The test is described as follows: KRAS G12D Coupled Nucleotide Exchange Assay. The format is biochemical. As to the method: KRAS G12D Coupled Nucleotide Exchange Assay
Following compound pre-incubation, purified SOS protein (aa 564-1049) and GTP (Roche 10106399001) were added to the assay wells and incubated for an additional 30 min. […] The assay plates were then read on a PerkinElmer EnVision Multilabel Reader, using AlphaScreen® technology, and data were analyzed using a 4-parameter logistic model to calculate IC50 values.

Where [4] appears, read: ASPC1, 2 h, read-out: 2 h p-ERK (AsPC-1 cells), IC50, AsPC-1 cells, 2 h compound treatment.

GDP-bound KRAS protein (aa 1-169), containing both G12D and C118A amino acid substitutions, sequence (P01116 1-169 isoform P01116-2 G12D/C118A): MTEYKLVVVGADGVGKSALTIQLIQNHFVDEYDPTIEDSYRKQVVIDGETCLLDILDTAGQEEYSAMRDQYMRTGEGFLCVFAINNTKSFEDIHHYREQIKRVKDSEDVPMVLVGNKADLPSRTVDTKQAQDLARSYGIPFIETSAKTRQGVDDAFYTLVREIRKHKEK
His-tagged KRAS G12D protein, sequence (P01116 1-188 isoform P01116-2 G12D): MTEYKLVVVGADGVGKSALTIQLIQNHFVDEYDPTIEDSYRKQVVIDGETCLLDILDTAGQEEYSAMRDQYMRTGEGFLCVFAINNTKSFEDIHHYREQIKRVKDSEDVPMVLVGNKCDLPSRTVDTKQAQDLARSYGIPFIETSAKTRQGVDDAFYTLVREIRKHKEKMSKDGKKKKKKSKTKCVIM

Usually IC50 stands for the concentration at which inhibition is half-maximal. For `CCC1CCCc2cc(O)cc(-c3ccc4c(N5CCC[C@@](C)(O)C5)nc(OC[C@@]56CCCN5C[C@H](F)C6)nc4c3F)c21` (stereo partly drawn) [Example 95, (3R)-1-(7-(8-Ethyl-3-hydroxy-5,6,7,8-tetrahydronaphthalen-1-yl)-8-fluoro-2-(((2R,7aS)-2-fluorotetrahydro-1H-pyrrolizin-7a(5H)-yl)methoxy)quinazolin-4-yl)-3-methylpiperidin-3-ol], the IC50 in test [1] (setting [4]) was 180 nM; in test [2], 12 nM; in test [3], 9 nM.

Take `CC1CCCc2cc(O)cc(-c3ccc4c(N5CCC[C@@](C)(O)C5)nc(OC[C@@]56CCCN5C[C@H](F)C6)nc4c3F)c21` (stereo partly drawn) [Example 96, (3R)-1-(8-Fluoro-2-(((2R,7aS)-2-fluorotetrahydro-1H-pyrrolizin-7a(5H)-yl)methoxy)-7-(3-hydroxy-8-methyl-5,6,7,8-tetrahydronaphthalen-1-yl)quinazolin-4-yl)-3-methylpiperidin-3-ol]: the IC50 in test [1] (setting [4]) was found to be 87 nM; in test [2], 10 nM; in test [3] it was 6 nM.

As for `C/C=C\c1c(Cl)cc2[nH]ncc2c1-c1c(F)cc2c(N3CCOC[C@@](C)(O)C3)nc(OC[C@@]34CCCN3C[C@H](F)C4)nc2c1F` [Example 103, (6S)-4-(7-(6-Chloro-5-((Z)-prop-1-en-1-yl)-1H-indazol-4-yl)-6,8-difluoro-2-(((2R,7aS)-2-fluorotetrahydro-1H-pyrrolizin-7a(5H)-yl)methoxy)quinazolin-4-yl)-6-methyl-1,4-oxazepan-6-ol], the results for the IC50 in test [1] (setting [4]), in test [2] and in test [3] were 27 nM, 7 nM and 5 nM, respectively.

Regarding `C/C=C\c1c(Cl)cc2[nH]ncc2c1-c1ccc2c(N3CCOC[C@@](C)(O)C3)nc(OC[C@@]34CCCN3C[C@H](F)C4)nc2c1F` [Example 105, (6S)-4-(7-(6-Chloro-5-((Z)-prop-1-en-1-yl)-1H-indazol-4-yl)-8-fluoro-2-(((2R,7aS)-2-fluorotetrahydro-1H-pyrrolizin-7a(5H)-yl)methoxy)quinazolin-4-yl)-6-methyl-1,4-oxazepan-6-ol], the IC50 in test [1] (setting [4]) amounted to 32 nM; in test [2], 3 nM; in test [3], 3 nM.

As for `C/C=C\c1c(C)cc2[nH]ncc2c1-c1ccc2c(N3CCOC[C@@](C)(O)C3)nc(OC[C@@]34CCCN3C[C@H](F)C4)nc2c1F` [Example 106, (6S)-4-(8-Fluoro-2-(((2R,7aS)-2-fluorotetrahydro-1H-pyrrolizin-7a(5H)-yl)methoxy)-7-(6-methyl-5-((Z)-prop-1-en-1-yl)-1H-indazol-4-yl)quinazolin-4-yl)-6-methyl-1,4-oxazepan-6-ol], the results for the IC50 in test [1] (setting [4]), in test [2] and in test [3] were 87 nM, 7 nM and 4 nM, respectively.

Regarding `C/C=C\c1c(Cl)cc2[nH]ncc2c1-c1ccc2c(N3CCC[C@@](C)(O)C3)nc(OC[C@@]34CCCN3C[C@H](F)C4)nc2c1F` [Example 108, (3R)-1-(7-(6-Chloro-5-((Z)-prop-1-en-1-yl)-1H-indazol-4-yl)-8-fluoro-2-(((2R,7aS)-2-fluorotetrahydro-1H-pyrrolizin-7a(5H)-yl)methoxy)quinazolin-4-yl)-3-methylpiperidin-3-ol], the IC50 in test [1] (setting [4]) was determined as 115 nM; in test [2] it was 4 nM; in test [3], 3 nM.

`C/C=C\c1c(Cl)cc2[nH]ncc2c1-c1ccc2c(N3CCC[C@@](C)(O)C3)nc(OCC3(CN(C)C)CC3)nc2c1F` [Example 115, (3R)-1-(7-(6-Chloro-5-((Z)-prop-1-en-1-yl)-1H-indazol-4-yl)-2-((1-((dimethylamino)methyl)cyclopropyl)methoxy)-8-fluoroquinazolin-4-yl)-3-methylpiperidin-3-ol]: the IC50 in test [1] (setting [4]) is 247 nM; in test [2], 8 nM; in test [3], 9 nM.

As for `C/C=C\c1c(Cl)cc2[nH]ncc2c1-c1ccc2c(N3CCC[C@]4(CCO4)C3)nc(OC[C@@]34CCCN3C[C@H](F)C4)nc2c1F` [Example 116, (4S)-6-(7-(6-Chloro-5-((Z)-prop-1-en-1-yl)-1H-indazol-4-yl)-8-fluoro-2-(((2R,7aS)-2-fluorotetrahydro-1H-pyrrolizin-7a(5H)-yl)methoxy)quinazolin-4-yl)-1-oxa-6-azaspiro[3.5]nonane], the half-inhibitory concentration (IC50) in test [1] (setting [4]) was 59 nM; in test [2], 3 nM; in test [3], 2 nM.

With `C/C=C\c1c(Cl)cc2[nH]ncc2c1-c1ccc2c(N3CCCC4(CNC(=O)O4)C3)nc(OC[C@@]34CCCN3C[C@H](F)C4)nc2c1F` (stereo partly drawn) [Example 117, 7-(7-(6-Chloro-5-((Z)-prop-1-en-1-yl)-1H-indazol-4-yl)-8-fluoro-2-(((2R,7aS)-2-fluorotetrahydro-1H-pyrrolizin-7a(5H)-yl)methoxy)quinazolin-4-yl)-1-oxa-3,7-diazaspiro[4.5]decan-2-one], the values for the IC50 in test [1] (setting [4]), in test [2] and in test [3] were 74 nM, 3 nM and 2 nM, respectively.

For the compound `C/C=C\c1c(Cl)cc2[nH]ncc2c1-c1c(F)cc2c(N3CCC[C@@](C)(O)C3)nc(OC[C@@]34CCCN3C[C@H](F)C4)nc2c1F` [Example 119, (3R)-1-(7-(6-Chloro-5-((Z)-prop-1-en-1-yl)-1H-indazol-4-yl)-6,8-difluoro-2-(((2R,7aS)-2-fluorotetrahydro-1H-pyrrolizin-7a(5H)-yl)methoxy)quinazolin-4-yl)-3-methylpiperidin-3-ol], the IC50 turned out to be 111 nM in test [1] (ASPC1, read-out: 2 h p-ERK (AsPC-1 cells), IC50, AsPC-1 cells, 2 h compound treatment); 16 nM in test [2]; 11 nM in test [3].
